{"source": "patent US20260364072A1", "about": "“METHODS FOR PROMOTING EXPANSION OF HUMAN CD34+ CELLS IN VIVO AND FOR PROMOTING NEURAL REGENERATION” (THE REGENTS OF THE UNIVERSITY OF CALIFORNIA, priority 2023, published 2026)", "key": {"ADAR1, CD44v3, MCL1-L": {"system": "ADAR1, CD44v3, MCL1-L", "assay": "LSC-associated transcripts and ADAR1 activity after treatment or ADAR1 shRNA knockdown", "type": "cell-based, human", "details": "phenocopied ADAR1 shRNA knockdown", "source_text": "For lentivirus-mediated knockdown of human ADAR1 in ADAR1 activation and RNA editing biomarker studies of the nanoluc-GFP reporter and endogenous transcripts, human leukemia cells were stably transduced with the lentiviral shRNA vectors targeting ADAR1 (shADAR1) or scrambled control (shCtrl) to ablate endogenous ADAR1 expression. The shRNA plasmids targeting ADAR1 (shADAR1) as well as the scrambled control (shCtrl) were purchased from VectorBuilder (Chicago, IL) (shCtrl: […] (SEQ ID NO:3) and shADAR1: […]) (SEQ ID NO:4). […] Viral titers were assessed by qRT-PCR and transduction efficiency was tested in 293T cells. […]\nFor quantitative analysis of splice isoform expression, RNA editing rates, and whole gene expression by qRT-PCR, cells or tissue fragments were harvested in RNA lysis buffer and total RNA was extracted using RNeasy mini or micro extraction kits (QIAGEN, Germantown, MD) following the manufacturer's protocol including a DNase incubation step to digest any trace genomic DNA present. Levels of ADAR1 variants and LSC-specific transcripts were quantified by qRT-PCR as previously described.^14 RNA-editing site-specific qRT-PCR (RESSqPCR) was performed for variants in AZIN1 transcripts.^53 Additional species-specific primers were also designed to quantify intron retention rates in cells treated with Rebecsinib as a biomarker of response to RNA splicing modulation. […]"}, "[1]": {"system": "KG-1a, MOLM-13 and HL-60 cells (SF3B family members, PTK2B-202)", "assay": "Splice isoform biomarker qRT-PCR in human AML cell lines", "type": "cell-based", "details": "1 μM, 4 hr", "protocol": "For quantitative analysis of splice isoform expression, RNA editing rates, and whole gene expression by qRT-PCR, cells or tissue fragments were harvested in RNA lysis buffer and total RNA was extracted using RNeasy mini or micro extraction kits (QIAGEN, Germantown, MD) following the manufacturer's protocol including a DNase incubation step to digest any trace genomic DNA present. Levels of ADAR1 variants and LSC-specific transcripts were quantified by qRT-PCR as previously described.^14 RNA-editing site-specific qRT-PCR (RESSqPCR) was performed for variants in AZIN1 transcripts.^53 Additional species-specific primers were also designed to quantify intron retention rates in cells treated with Rebecsinib as a biomarker of response to RNA splicing modulation. Specifically, for the two-step SYBR-green based assays, as previously described,^7,14,53 100-1000 ng of RNA were subjected to cDNA synthesis using the SUPERSCRIPT III™ (ThermoFisher Scientific) kit followed by qRT-PCR using SYBR GreenER (ThermoFisher Scientific) master mix according to the manufacturer's recommended procedures. qRT-PCR was performed using SYBR GREENER SUPER MIX™ (Life Technologies) on BioRad iQ5™, C1000 TOUCH™, or BioRad CFX384™ instruments. Human splice isoform-specific, RNA editing site-specific qPCR (RESSqPCR)^53. Primer sets that have not been previously published were designed and tested for efficiency followed by analyses in samples exposed to Rebecsinib, with species-specific HPRT primers used as controls. […] Relative mRNA expression values were calculated using the 2^−ΔCT method, with normalization to untreated or vehicle-treated controls.^54\nFor multi-species biomarker development and transcript variant-specific qRT-PCR experiments, human AML cell lines KG-1a, MOLM-13, and HL-60, and rat leukemia cells RBL-1 were grown to confluence and treated with 1 μM Rebecsinib for 4 hr. Cells were collected and lysed in Qiagen RNA lysis buffer, and analyzed using the species-specific primers and qRT-PCR procedures described above."}, "sAML LSC": {"system": "sAML LSC", "assay": "Humanized sAML LSC mouse model", "type": "in vivo, human cells in Rag2-/-γc-/- mice", "details": "twice weekly dosing; splicing factor mutated and unmutated samples", "source_text": "In humanized mouse models, sAML cells (CD34^+) from two unique […] patient samples that were splicing factor mutated or unmutated were utilized, including sAML50261 and sAML2008-5.^14 For in vivo efficacy and therapeutic index studies, sAML CD34^+ cells, or normal human cord blood-derived or aged bone marrow-derived HSPCs (CD34^+), were transplanted (50,000-200,000 cells per mouse) intrahepatically into neonatal Rag2^−/−γc^−/− mice, or intravenously into adult NSG-SGM3 mice (Jackson Laboratories, Bar Harbor, ME). A subset of experiments was performed with normal aged bone marrow cells that were transduced with the lentiviral ADAR1 nanoluc-GFP reporter vector prior to transplant. […] For animals that received transplants of cells transduced with the lentiviral ADAR1 nanoluc-GFP reporter, mice were imaged 15 weeks after transplant on the IVIS 200, as previously described.^79 Following treatment with Rebecsinib (five intravenous doses total over a two-week period), hematopoietic tissues (peripheral blood, bone marrow, spleens) were collected and analyzed by flow cytometry as previously described.^14 For splice isoform-specific qRT-PCR or RNA-seq analyses on cells from in vivo studies, human CD34^+ LSC from bone marrows and spleens of engrafted mice were isolated by magnetic bead separation (Miltenyi Biotec)."}, "RNA editing": {"system": "RNA editing", "assay": "Whole transcriptome RNA editing analysis of CD34+ cells from sAML50261 engrafted mice", "type": "in vivo, human cells in mice", "details": "mice treated with 5 or 10 mg/kg", "protocol": "FIG. 30E illustrates a whole transcriptome-based RNA editing analyses of previously-described RNA-seq data^14 generated from CD34^+ cells isolated from the spleens of sAML50261 engrafted mice treated with Rebecsinib or vehicle;\nFor RNA editing analyses of whole transcriptome sequencing data, previous datasets were utilized from CD34^+ cells isolated from the spleens of sAML50261-engrafted mice treated once weekly with Rebecsinib in a dose-response assay (5 or 10 mg/kg),^14 along with CD34^+ cells harvested from mice that were serially transplanted with CD34+ cells from sAML50261-engrafted mice that had been treated twice weekly with Rebecsinib at 10 mg/kg (no further treatment was delivered to serial transplant recipients). Due to limiting number of cells remaining after treatment, cells were pooled from n=4 to 5 mice per condition for sequencing. RNA editing analysis was performed as previously described.^5"}}, "data": [{"molecule": "CC[C@H](OC)[C@@H](C)[C@H]1O[C@@H]1[C@@H](O)[C@H](C)/C=C/C=C(\\C)[C@H]1OC(=O)C[C@H](O)CC[C@@](C)(O)[C@@H](OC(C)=O)/C=C/[C@@H]1C", "note": "[Rebecsinib]", "values": [{"measurement": "ADAR1 activity", "setting": "ADAR1, CD44v3, MCL1-L", "result": "repression of ADAR1 activity"}, {"measurement": "expression of LSC-associated transcripts, such as CD44v3 and MCL1-L", "setting": "ADAR1, CD44v3, MCL1-L", "result": "reduced expression of LSC-associated transcripts"}, {"measurement": "expression of PTK2B-202 isoform", "setting": "[1]", "result": "Decreased expression of the LSC-related PTK2B-202 isoform"}, {"measurement": "intronic retention of SF3B family members", "setting": "[1]; KG-1a, MOLM-13 and HL-60", "result": "significant upregulation of intronic retention of SF3B family members"}, {"measurement": "SF3B3 intron retention response", "setting": "[1]; across all cell lines", "result": "most potent and consistent response"}, {"measurement": "sAML LSC burden in bone marrow, peripheral blood, and spleen", "setting": "sAML LSC", "result": "significant reduction in sAML LSC burden"}, {"measurement": "RNA editing activity", "setting": "RNA editing", "result": "global downregulation of RNA editing activity that occurred in a dose-responsive manner"}]}]}
